Data as given in patent publication US8663616B2, “Enzymatic peracid generation for use in oral care products” (E I du Pont de Nemours and Company, priority 2010, dated 2014).
Ends that are not written are not given here. * marks the point of attachment. Biotin = O=C1N[C@H]2[C@H](CS[C@H]2CCCCC(=O)*)N1

Tests used:
[1] = molecular target: T1, C277T/R296P (SEQ ID NO: 476) (Thermotoga maritima, UniProt Q9WXT2, C277T/R296P); format: biochemical; conditions: 100 mM ester, 60 mM H2O2, 40 ppm enzyme, 95 mM phosphate pH 7.2, 37° C.
T1 construct: made in house; host or cells: E. coli
T1 sequence (Q9WXT2 whole entry C277T/R296P): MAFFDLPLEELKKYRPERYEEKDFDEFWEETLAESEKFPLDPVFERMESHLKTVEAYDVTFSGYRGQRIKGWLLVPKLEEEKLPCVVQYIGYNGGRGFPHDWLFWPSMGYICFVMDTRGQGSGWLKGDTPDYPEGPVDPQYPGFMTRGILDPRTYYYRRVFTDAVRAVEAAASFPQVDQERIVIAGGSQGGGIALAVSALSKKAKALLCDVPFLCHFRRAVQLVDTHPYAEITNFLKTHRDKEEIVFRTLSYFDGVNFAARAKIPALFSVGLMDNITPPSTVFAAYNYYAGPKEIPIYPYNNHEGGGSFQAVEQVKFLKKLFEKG
Experimental: (§1) To test various enzymes against an ester substrate, it was convenient to run up to 4 reactions simultaneously by staggering the beginning of each individual reaction by 0.5-1 min. Each individual reaction was performed in a glass vessel (height: 76 mm; o.d.: 33 mm; i.d.: 24 mm) equipped with a magnetic stirring bar. Four reaction vessels were banded together and kept at constant temperature in a jacketed one-liter, stainless steel, tempering beaker (KGW IsoTherm, # TSS-G 1000W) with circulating water controlled by a Thermo NesLab recirculation bath (Model # RTE-7 Digital One). Buffer (6 mL, 100 mM sodium phosphate buffer, pH 7.2) was added to each reaction vessel and allowed to equilibrate to 37° C. The ester substrate of interest was added to achieve 100 mM concentration. […] To follow the production of peracetic acid, 80 μL samples from each reaction were removed at specific intervals from 1 to 15 minutes. The sample was immediately quenched in a microfuge filter tube (NanoSep 30K VWR cat #82031-354) containing a volume and concentration of phosphoric acid solution that was sufficient to stop the enzymatic reaction (by lowering the pH between 2 and 3) and to dilute the sample for convenient HPLC analyses. The acid-quenched samples were centrifuged for 5 minutes to remove any particulates.

[2] = molecular target: T2, Wild Type (SEQ ID NO: 16) (Thermotoga maritima, UniProt Q9WXT2); experiment: Maximum peracetic acid from ester substrates with wild type perhydrolase (Example 14); format: biochemical; conditions: 100 mM ester, 60 mM H2O2, 40 ppm enzyme, 95 mM phosphate pH 7.2, 37° C.
T2 construct: made in house; host or cells: E. coli
T2 sequence (Q9WXT2 1-325): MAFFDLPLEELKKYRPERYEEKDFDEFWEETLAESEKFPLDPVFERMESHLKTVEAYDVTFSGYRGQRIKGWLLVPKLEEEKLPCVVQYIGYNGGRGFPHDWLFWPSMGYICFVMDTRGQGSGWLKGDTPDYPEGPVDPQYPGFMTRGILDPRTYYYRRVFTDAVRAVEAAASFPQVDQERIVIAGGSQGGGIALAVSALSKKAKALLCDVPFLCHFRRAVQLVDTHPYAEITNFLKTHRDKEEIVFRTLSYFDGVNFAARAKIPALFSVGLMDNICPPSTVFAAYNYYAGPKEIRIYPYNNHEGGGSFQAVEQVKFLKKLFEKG
Experimental: as §1

[3] = Bleaching of coffee-tea stained bovine enamel with EZ-1 and various ester substrates (Example 15); set-up: Whiteness Index Treatment 0 / Whiteness Index Treatment 1 / Whiteness Index Treatment 2 / Whiteness Index Treatment 3 / ΔWI: scale not given here; conditions: for Whiteness Index Treatment 1: after 1 x 30 min treatment; for Whiteness Index Treatment 2: after 2 x 30 min treatments; for Whiteness Index Treatment 3: after 3 x 30 min treatments; for Whiteness Index Treatment 0: before treatment, 40 ppm EZ-1, 100 mM substrate, H2O2 100 mM (TA), 360 mM (PGDA, SOC), 60 mM (GPA), pH 7.2, control 9% H2O2 pH 5.3 without enzyme; for change in whiteness index (in words): enzymatically generated peracetic acid with EZ-1, each successive treatment; for ΔWI: treatment 0 to treatment 3
Experimental: The optimal conditions used for the generation of peracetic acid with each substrate were derived from the studies in Example 14 and are listed below as follows:
Bovine enamel incisors were prepared as indicated in Example 1. The stained enamel blocks were placed in a 24 well plate with the dentin side facing down and hydrated overnight in phosphate buffer, pH 7.2. Prior to treatment, a color measurement of each tooth was performed using a Konica-Minolta 2600d spectrophotometer and whiteness index was calculated as specified in Example 1.
Each enzyme solution was prepared in a 1.5-mL microfuge tube (Eppendorf, #2243102-1) and 1 mL of the solution was immediately transferred to the 24 well plate containing the pre-hydrated teeth. The control samples consisted of 100 mM phosphate buffer, pH 7.2 and 9% H2O2 in 100 mM citrate/phosphate buffer, pH 5.3. The teeth were incubated at room temperature for 30 minutes, removed, rinsed with 100 mM phosphate, pH 7.2 and a color measurement was taken. The teeth were placed back into the 24 well plate at which time fresh enzyme solutions were prepared and added to each well. This process was repeated for a total of 3 whitening treatments; 30 min per treatment (Table 22).

[4] = molecular target: T3, C277T (SEQ ID NO: 437) (Thermotoga maritima, UniProt Q9WXT2, C277T); format: biochemical; conditions: 100 mM ester, 60 mM H2O2, 40 ppm enzyme, 95 mM phosphate pH 7.2, 37° C.
T3 construct: made in house; host or cells: E. coli
T3 sequence (Q9WXT2 whole entry C277T): as the sequence (Q9WXT2 whole entry C277T/R296P) above, with P296R counted along it
Experimental: as §1

[5] = molecular target: T4, C277S (SEQ ID NO: 424) (Thermotoga maritima, UniProt Q9WXT2, C277S); format: biochemical; conditions: 100 mM ester, 60 mM H2O2, 40 ppm enzyme, 95 mM phosphate pH 7.2, 37° C.
T4 construct: made in house; host or cells: E. coli
T4 sequence (Q9WXT2 whole entry C277S): as the sequence (Q9WXT2 whole entry C277T/R296P) above, with T277S, P296R counted along it
Experimental: as §1

[6] = 20 μM biotin-labelled peptide, 30 min 37° C.; streptavidin-HRP, QuantaBlu; three replicate enamel substrates; no peptide 494.2
Experimental: A total of 11 synthetic peptides were manufactured using sequences obtained from Table 3. Peptides were obtained from SynBioSci Corp. (Livermore, Calif.) with biotin labeled lysine at the C-terminus.
Enamel substrates were prepared as described in Example 2. Each substrate was incubated for 1 h at room temperature (˜22° C.) with 1 mL of blocking buffer, consisting of 1 mg/mL BSA in PBST (Pierce BUPH™ #28372 with 0.1% TWEEN® 20). The blocking buffer was removed by aspirating the liquid out of each well. The tube was rinsed 2 times with wash buffer consisting of PBST. The wells were filled with 500 μL of 20 μM peptide solution which was prepared by diluting in blocking buffer. The samples were incubated for 30 min with slow shaking at 37° C. The non-binding peptide was removed by washing 6 times with PBST. Then, 500 μL of horseradish peroxidase/streptavidin conjugate (Pierce #22127), diluted 1:1000 in PBST, was added and incubated for 1 h at room temperature (˜22° C.). The conjugate solution was removed and the enamel blocks were washed 4 times with PEST.
Each enamel substrate was removed from the well and washed again in a 15-mL test tube with 10 mL of PBST. Each enamel substrate was then mounted in a clean well plate with only the enamel surface exposed. 200 μL of a QUANTABLU™ Substrate Solution (Thermo-Fisher, Rockford, Ill.; #1856187) was added directly to each enamel block. The solution was incubated for 20 min at room temperature. 200 μL of QUANTABLU™ Stop Solution (Thermo Fisher) was added. After mixing, 200 μL of solution was transferred to a clean 96-well black microcentrifuge plate. The fluorescence of the plate was measured with 325 nm excitation and 420 nm emission with no cutoff wavelength using a microplate spectrophotometer (Molecular Devices, Sunnyvale, Calif.). The analysis of the 11 pellicle/enamel binding candidates was compared to a known binding peptide, DenP03. Each sequence was tested with three replicate enamel substrates.

| Compound | Maximum Peracetic Acid (PAA) (ppm), C277T/R296P (SEQ ID NO: 476) [1] [ppm] | Maximum Peracetic Acid (PAA) (ppm), Wild Type (SEQ ID NO: 16) [2] [ppm] | Maximum Peracetic Acid (PAA) (ppm), C277T (SEQ ID NO: 437) [4] [ppm] | Maximum Peracetic Acid (PAA) (ppm), C277S (SEQ ID NO: 424) [5] [ppm] | Avg Fluorescence 325/420 [6] | other results |
| --- | --- | --- | --- | --- | --- | --- |
| CC(=O)OCC(C)OC(C)=O (stereo not drawn) [Propylene glycol diacetate] | 1202 | 780 | 1245 | 1128 | – | Whiteness Index Treatment 1 [3]: −108.0; Whiteness Index Treatment 2 [3]: −80.9; Whiteness Index Treatment 3 [3]: −80.1; Whiteness Index Treatment 0 [3]: −181.4; change in whiteness index (in words) [3]: significant change in whiteness index; ΔWI [3]: 101.3 |
| CC(=O)OC[C@H]1O[C@@](COC(C)=O)(O[C@H]2O[C@H](COC(C)=O)[C@@H](OC(C)=O)[C@H](OC(C)=O)[C@H]2OC(C)=O)[C@@H](OC(C)=O)[C@@H]1OC(C)=O [Sucrose octaacetate] | 501 | 304 | 493 | 215 | – | Whiteness Index Treatment 1 [3]: −135.2; Whiteness Index Treatment 2 [3]: −135.9; Whiteness Index Treatment 3 [3]: −128.8; Whiteness Index Treatment 0 [3]: −172.8; change in whiteness index (in words) [3]: significant change in whiteness index; ΔWI [3]: 44.0 |
| CC(=O)OCC(COC(C)=O)OC(C)=O [Triacetin] | 2291 | 937 | 2311 | 1977 | – | Whiteness Index Treatment 1 [3]: −108.7; Whiteness Index Treatment 2 [3]: −86.7; Whiteness Index Treatment 3 [3]: −86.1; Whiteness Index Treatment 0 [3]: −189.9; change in whiteness index (in words) [3]: significant change in whiteness index; ΔWI [3]: 103.8 |
| CC(=O)OC[C@H]1O[C@H](OC(C)=O)[C@H](OC(C)=O)[C@@H](OC(C)=O)[C@@H]1OC(C)=O [α-D-glucose pentaacetate] | 1678 | 1188 | 2542 | 2091 | – | Whiteness Index Treatment 1 [3]: −128.7; Whiteness Index Treatment 2 [3]: −105.3; Whiteness Index Treatment 3 [3]: −95.9; Whiteness Index Treatment 0 [3]: −225.2; change in whiteness index (in words) [3]: significant change in whiteness index; ΔWI [3]: 129.3 |
| CC(=O)OC[C@H]1O[C@@H](OC(C)=O)[C@H](OC(C)=O)[C@@H](OC(C)=O)[C@@H]1OC(C)=O [β-D-glucose pentaacetate] | 1716 | 1158 | 2531 | 2178 | – | – |
| CC(=O)OC[C@H]1O[C@@H](OC(C)=O)[C@H](OC(C)=O)[C@H]1OC(C)=O [β-D-xylofuranose tetraacetate] | 3158 | 2384 | 3481 | 3354 | – | – |
| ANSGFPIWLQKYPWSEVQQEK (Biotin) [DenP309] | – | – | – | – | 1729.5 | – |
| ATPSQHRYGLMQNHAPNGIEK(Biotin) [DenP311] | – | – | – | – | 795.3 | – |
| DLGTFPNRTLKMAAHK(Biotin) [DenP304] | – | – | – | – | 642.8 | – |
| DTIHPNKMKSPSSPLK (Biotin) [DenP305] | – | – | – | – | 581.2 | – |
| GMGSEVLSQYPQAPVGK(Biotin) [DenP312] | – | – | – | – | 2301.0 | – |
| GSNNHLPSTVPRLTVK(Biotin) [DenP306] | – | – | – | – | 1300.0 | – |
| HDPYTMKSALRQSTSK(Biotin) [DenP303] | – | – | – | – | 948.6 | – |
| QAAQVHMMQHSRPTTK (Biotin) [DenP302] | – | – | – | – | 608.6 | – |
| SNATMYNIQSHSHHQK (Biotin) [DenP301] | – | – | – | – | 1098.4 | – |
| SNPIPNFAHDLRHSKYNSK (Biotin) [DenP307] | – | – | – | – | 861.6 | – |
| TKPPRTPTANTSRPHHNFK(Biotin) [DenP308] | – | – | – | – | 12302.6 | – |
| TTYHYKNIYQESYQQRNPAVK (Biotin) [DenP03, reference compound] | – | – | – | – | 3448.3 | – |
